According to the supplement of paper PMC10307832:

Compound: CC[C@@H]1C(=O)N(C)c2cnc(Nc3ccc(C(=O)NC4CCN(C)CC4)cc3OC)nc2N1C1CCCC1 [BI-2536] + O=C(CCCCCCC(=O)Nc1ccccc1)NO [Vorinostat] (partner 1 µM)
Assay: relative viability (nuclei count vs DMSO), 5 days (fraction); higher = more cells survive
Details: first compound 0.01 µM
Procedure, shortened: (§1)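 A single step with final 0.05% Triton X-100, 1% formaldehyde and 1 ug/ml Hoechst fixed the cells and stained nuclei 5 days after treatment. Lung cancer cell lines in 1536-well plates had been treated by pin tool the day after seeding with one drug alone or a fixed anchor-drug dose plus five library-drug doses (not always all listed) in √10 steps, and nuclei were counted on 4× images. Relative viability is the ratio of nuclei in treated wells to nuclei in vehicle wells, taken as the median of duplicate plates.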

Cell Line	relative viability
NCI-H2405	0.981
HOP-62	0.528
LU99A	0.406
BEN	0.574
HARA	0.626
HCC-78	0.421
NCI-H322M	0.926
LCLC-97TM1	0.721
NCI-H2009	0.745
A-427	0.871
NCI-H441	0.668
NCI-H661	0.714
NCI-H1734	0.734
NCI-H460	0.735
NCI-H2347	0.509
SK-LU-1	0.727

Cell Line	relative viability
201T	0.967
NCI-H1915	0.464
HCC-827	0.884
LXF-289	0.855
NCI-H23	0.527
NCI-H647	0.526
CAL-12T	0.817
NCI-H1651	0.492
EPLC-272H	0.339
NCI-H2228	0.823
NCI-H1355	0.584
NCI-H3122	0.928
NCI-H1437	0.809
NCI-H1755	0.833
NCI-H2023	0.684
HCC-15	0.675

Same assay, conditions: first compound 0.03162 µM

Cell Line	relative viability
NCI-H2405	0.608
HOP-62	0.74
LU99A	0.405
BEN	0.452
HARA	0.511
HCC-78	0.49
NCI-H322M	0.829
LCLC-97TM1	0.787
NCI-H2009	0.689
A-427	0.859
NCI-H441	0.601
NCI-H661	0.323
NCI-H1734	0.543
NCI-H460	1.07
NCI-H2347	0.591
SK-LU-1	0.643

Cell Line	relative viability
201T	0.98
NCI-H1915	0.478
HCC-827	0.943
LXF-289	0.684
NCI-H23	0.555
NCI-H647	0.372
CAL-12T	0.695
NCI-H1651	0.553
EPLC-272H	0.126
NCI-H2228	0.468
NCI-H1355	0.66
NCI-H3122	0.779
NCI-H1437	0.751
NCI-H1755	0.595
NCI-H2023	0.549
HCC-15	0.769

Same assay, conditions: first compound 0.1 µM

Cell Line	relative viability
NCI-H2405	0.35
HOP-62	0.188
LU99A	0.151
BEN	0.412
HARA	0.422
HCC-78	0.379
NCI-H322M	0.641
LCLC-97TM1	0.0652
NCI-H2009	0.373
A-427	0.296
NCI-H441	0.263
NCI-H661	0.292
NCI-H1734	0.17
NCI-H460	0.119
NCI-H2347	0.456
SK-LU-1	0.271

Cell Line	relative viability
201T	0.841
NCI-H1915	0.295
HCC-827	0.665
LXF-289	0.372
NCI-H23	0.133
NCI-H647	0.236
CAL-12T	0.278
NCI-H1651	0.328
EPLC-272H	0.0766
NCI-H2228	0.106
NCI-H1355	0.37
NCI-H3122	0.179
NCI-H1437	0.394
NCI-H1755	0.426
NCI-H2023	0.154
HCC-15	0.615

Same assay, conditions: first compound 0.3162 µM

Cell Line	relative viability
NCI-H2405	0.278
HOP-62	0.104
LU99A	0.162
BEN	0.386
HARA	0.0897
HCC-78	0.268
NCI-H322M	0.45
LCLC-97TM1	0.078
NCI-H2009	0.193
A-427	0.19
NCI-H441	0.212
NCI-H661	0.302
NCI-H1734	0.165
NCI-H460	0.0148
NCI-H2347	0.436
SK-LU-1	0.247

Cell Line	relative viability
201T	0.254
NCI-H1915	0.0928
HCC-827	0.222
LXF-289	0.0658
NCI-H23	0.133
NCI-H647	0.086
CAL-12T	0.147
NCI-H1651	0.123
EPLC-272H	0.112
NCI-H2228	0.134
NCI-H1355	0.171
NCI-H3122	0.149
NCI-H1437	0.301
NCI-H1755	0.34
NCI-H2023	0.0827
HCC-15	0.137

Same assay, conditions: first compound 1 µM

Cell Line	relative viability
NCI-H2405	0.337
HOP-62	0.13
LU99A	0.163
BEN	0.38
HARA	0.108
HCC-78	0.27
NCI-H322M	0.422
LCLC-97TM1	0.0571
NCI-H2009	0.152
A-427	0.165
NCI-H441	0.178
NCI-H661	0.306
NCI-H1734	0.169
NCI-H460	0.014
NCI-H2347	0.336
SK-LU-1	0.247

Cell Line	relative viability
201T	0.31
NCI-H1915	0.0626
HCC-827	0.227
LXF-289	0.0936
NCI-H23	0.157
NCI-H647	0.0837
CAL-12T	0.129
NCI-H1651	0.0939
EPLC-272H	0.0972
NCI-H2228	0.0804
NCI-H1355	0.152
NCI-H3122	0.151
NCI-H1437	0.312
NCI-H1755	0.329
NCI-H2023	0.0741
HCC-15	0.141

Compound: CC1CC(=O)N(C2=CN=C(N=C2N1C3CCCC3)NC4=C(C=C(C=C4)C(=O)NC5CCN(CC5)C)OC)C [NPK76-II-72-1] + Nc1nc2[nH]cc(CCc3ccc(C(=O)N[C@@H](CCC(=O)O)C(=O)O)cc3)c2c(=O)[nH]1 [Pemetrexed] (partner 0.2 µM)
Assay: as above
Details: first compound 0.01 µM
Procedure, shortened: as §1

Cell Line	relative viability
NCI-H2405	1.04
HOP-62	0.291
LU99A	0.181
BEN	0.794
HARA	0.293
HCC-78	0.978
NCI-H322M	0.606
LCLC-97TM1	0.178
NCI-H2009	0.971
A-427	0.903
NCI-H441	0.293
NCI-H661	0.953
NCI-H1734	0.428
NCI-H460	0.061
NCI-H2347	0.502
SK-LU-1	0.972

Cell Line	relative viability
201T	0.344
NCI-H1915	0.459
HCC-827	0.293
LXF-289	0.885
NCI-H23	0.52
NCI-H647	0.189
CAL-12T	0.927
NCI-H1651	0.534
EPLC-272H	0.338
NCI-H2228	0.307
NCI-H1355	1.02
NCI-H3122	0.209
NCI-H1437	0.319
NCI-H1755	0.385
NCI-H2023	0.229
HCC-15	0.214

Same assay, conditions: first compound 0.03162 µM

Cell Line	relative viability
NCI-H2405	1.01
HOP-62	0.374
LU99A	0.172
BEN	0.683
HARA	0.28
HCC-78	0.893
NCI-H322M	0.566
LCLC-97TM1	0.196
NCI-H2009	1.18
A-427	0.991
NCI-H441	0.266
NCI-H661	0.907
NCI-H1734	0.402
NCI-H460	0.0655
NCI-H2347	0.42
SK-LU-1	1.05

Cell Line	relative viability
201T	0.319
NCI-H1915	0.527
HCC-827	0.275
LXF-289	0.976
NCI-H23	0.915
NCI-H647	0.174
CAL-12T	1.1
NCI-H1651	0.61
EPLC-272H	0.303
NCI-H2228	0.359
NCI-H1355	1
NCI-H3122	0.191
NCI-H1437	0.305
NCI-H1755	0.405
NCI-H2023	0.228
HCC-15	0.23

Same assay, conditions: first compound 0.1 µM

Cell Line	relative viability
NCI-H2405	0.956
HOP-62	0.296
LU99A	0.205
BEN	0.739
HARA	0.256
HCC-78	0.75
NCI-H322M	0.601
LCLC-97TM1	0.164
NCI-H2009	1
A-427	0.978
NCI-H441	0.246
NCI-H661	0.893
NCI-H1734	0.413
NCI-H460	0.0657
NCI-H2347	0.417
SK-LU-1	0.925

Cell Line	relative viability
201T	0.338
NCI-H1915	0.452
HCC-827	0.302
LXF-289	0.89
NCI-H23	0.597
NCI-H647	0.171
CAL-12T	1.14
NCI-H1651	0.611
EPLC-272H	0.303
NCI-H2228	0.33
NCI-H1355	0.99
NCI-H3122	0.181
NCI-H1437	0.307
NCI-H1755	0.464
NCI-H2023	0.236
HCC-15	0.219

Same assay, conditions: first compound 0.3162 µM

Cell Line	relative viability
NCI-H2405	1.08
HOP-62	0.245
LU99A	0.163
BEN	0.755
HCC-78	0.869
NCI-H322M	0.539
LCLC-97TM1	0.158
NCI-H2009	1.02
A-427	0.965
NCI-H441	0.274
NCI-H661	0.902
NCI-H1734	0.418
NCI-H460	0.0656
NCI-H2347	0.403
SK-LU-1	1.03
201T	0.324

Cell Line	relative viability
NCI-H1915	0.475
HCC-827	0.264
LXF-289	0.892
NCI-H23	0.71
NCI-H647	0.172
CAL-12T	0.943
NCI-H1651	0.527
EPLC-272H	0.311
NCI-H2228	0.339
NCI-H1355	0.972
NCI-H3122	0.195
NCI-H1437	0.305
NCI-H1755	0.544
NCI-H2023	0.253
HCC-15	0.225

Same assay, conditions: first compound 1 µM

Cell Line	relative viability
NCI-H2405	1.06
HOP-62	0.32
LU99A	0.22
BEN	0.934
HARA	0.195
HCC-78	0.895
NCI-H322M	0.595
LCLC-97TM1	0.155
NCI-H2009	1.04
A-427	1.01
NCI-H441	0.25
NCI-H661	0.954
NCI-H1734	0.416
NCI-H460	0.0639
NCI-H2347	0.354
SK-LU-1	1.04
201T	0.333
NCI-H1915	0.533
HCC-827	0.278
LXF-289	0.855
NCI-H23	0.777
NCI-H647	0.198
CAL-12T	1.5
NCI-H1651	0.6
EPLC-272H	0.335
NCI-H2228	0.343
NCI-H1355	1.06
NCI-H3122	0.209
NCI-H1437	0.352
NCI-H1755	0.405
